{"source": "patent US6759402B2", "about": "“Cyclic felbamate derived compounds” (University of Virginia Patent Foundation, priority 1999, dated 2004)", "key": {"[1]": {"test_system": "pentylenetetrazol-induced clonic seizures", "test": "Subcutaneous Metrazol seizure test (scMET), mice i.p.", "type": "in vivo, Carworth Farms No. 1 mice", "from_the_text": "(§1) The fluoro derivatives synthesized were submitted to the National Institute of Neurological Disorders and Stroke (NINDS) for evaluation in a standard panel of assays. Two convulsant tests (MES and scMET), and a toxicity screen (rotorod in mice, positional sense and gait in rats) were employed for evaluating the compounds activity as neuroprotecting agents. These testing procedures are described in detail in Molecular and Cellular Targets for Anti-epileptic Drugs, eds. G. Avanzini, G. Regesta, P. Tanganelli, M. Avoli, 1997, John Libbey & Company Ltd, pp 191-198. The felbamate derivatives were evaluated for anticonvulsant activity following intraperitoneal (i.p.) administration in mice and oral administration in rats.\nThis is a model that primarily identifies compounds that raise seizure threshold. With some minor exceptions, the pharmacological profile of the scMET seizure model is consistent with the human condition. The scMET test utilizes a dose of pentylenetetrazol (85 mg/kg in Carworth Farms No. 1 mice and 70 mg/kg in Sprague-Dawley rats) that induces clonic seizures lasting for a period of at least five seconds in 97% (CD97) of animals tested. At the anticipated time of testing the convulsant is administered subcutaneously. The test compound is administered intraperitoneally in mice and orally in rats. Animals are observed over a 30 minute period. Absence of clonic spasms in the observed time period indicates a compound's ability to abolish the effect of pentylenetetrazol on seizure threshold.\n(§2) For the MES and scMET tests the data is presented in the form of the number of animals protected by the administered compound/total number of animals tested. […] Qualitative data was obtained for fluoro felbamate 12 (Tables 1 and 2A), fluoro monocarbamate felbamate 13 (Tables 1 and 2B), and flourodioxo 16 (Tables 1 and 2C) and for cyclic felbamate 21 (Tables 5 and 6B) and cyclic monocarbamate 22 (Tables 5 and 6A). More extensive quantitative data was also obtained for fluoro felbamate 12 in mice (Table 3) and rats (Table 4)."}, "[2]": {"test_system": "rats (positional sense, gait and stance)", "test": "Minimal neurotoxicity (TOX), positional sense and gait and stance tests, rats p.o.", "type": "in vivo", "conditions": "for TOX: number of animals exhibiting toxic effects/total number of animals tested: rat p.o., 30 mg/kg", "from_the_text": "as §1, with “G. Avanzini, G. Regesta, P. Tanganelli, M. Avoli, 1997, John Libbey & Company Ltd, pp 191-198.” left out\nRats are examined for behavioral toxicity by the positional sense test and a gait and stance test. […] In the gait and stance test, neurotoxicity is indicated by a circular or zigzag gait, ataxia, abnormal spread of the legs, abnormal posture, tremor hyperactivity, lack of exploratory behavior, somnolence, stupor or catalepsy.\nFor the MES and scMET tests the data is presented in the form of the number of animals protected by the administered compound/total number of animals tested."}, "[3]": {"test_system": "MES-induced seizure spread", "test": "Maximal Electroshock Seizure (MES) test, mice i.p.", "type": "in vivo", "conditions": "for MES: number of animals protected/total number of animals tested: mice i.p.", "from_the_text": "as §1\n(§3) The MES test is a model for generalized tonic-clonic seizures and is used to identify compounds which prevent seizure spread. The behavioral and electrographic seizures generated in this model are consistent with the human disorder. In the MES test, an electrical stimulus of 0.2 s in duration (50 mA in mice and 150 mA in rat at 60 Hz) was delivered via corneal electrodes primed with an electrolyte solution containing an anesthetic agent. Mice were tested at 30 minutes and 4 hours following doses of 30, 100 and 300 mg/kg of test compound. Rats were tested at time intervals between 0.25 and 4 hours following a standard oral dose of 30 mg/kg. Abolition of the hindlimb tonic extensor component indicates the test compound's ability to inhibit MES-induced seizure spread.\nas §2"}, "[4]": {"test_system": "MES-induced seizure spread", "test": "Maximal Electroshock Seizure (MES) test, rats p.o.", "type": "in vivo", "conditions": "for anti-seizure activity in rats: rat models; for MES: number of animals protected/total number of animals tested: rat p.o.; for MES: number of animals protected/total number of animals tested / MES protection: 30 mg/kg; for MES protection: rats, oral, several timepoints", "from_the_text": "as §1, §3, §2"}, "mice (rotorod)": {"test_system": "mice (rotorod)", "test": "Minimal neurotoxicity (TOX), rotorod test, mice i.p.", "type": "in vivo", "conditions": "for TOX: number of animals exhibiting toxic effects/total number of animals tested: mice i.p.", "from_the_text": "as §1, with “G. Avanzini, G. Regesta, P. Tanganelli, M. Avoli, 1997, John Libbey & Company Ltd, pp 191-198.” left out, “rats. […]” for “rats.”"}, "[5]": {"test_system": "hippocampal kindled focal seizures", "test": "Hippocampal kindling model, kindled rats i.p.", "type": "in vivo, adult male Sprague-Dawley rats", "conditions": "for Number Protected/Number Tested: Dose Responses table", "from_the_text": "The hippocampal kindling model can be used to evaluate a compound's ability to affect both the expression and acquisition of focal seizures. The hippocampal kindling paradigm as described by Lothman and Williamson (Lothman, 1994) allows the temporal effects of a drug to be evaluated in a single animal. This procedure requires the surgical placement of bipolar electrodes in the ventral hippocampus of adult male Sprague-Dawley rats. Stage five behavioral seizures are produced by using a stimulus consisting of a 50 Hz, 10 s train of 1 ms biphasic 200 uA pulses delivered every 30 min for 6 hours (12 stimuli per day) on alternating days for a total of 60 stimulations (five stimulus days). Prior to evaluating a candidate's anticonvulsant activity, a drug free control period consisting of supramaximal stimulations are recorded to verify the stability of a stage five generalized seizure.\nA single dose of the candidate compound is then administered intraperitoneally (i.p.), 15 min following the last control stimulation. The anticonvulsant activity of the drug is assessed every 30 min for three to four hours starting 15 min after administering the test material. After each stimulation, individual Racine seizure scores and afterdischarge durations are recorded. Rats are used again in drug trials after four to five drug- and stimulus-free days."}, "[6]": {"test": "Stability of oxazinane-dione at relevant pH", "type": "physicochemical"}}, "note": "Marks after values point to notes of the source that are not given here.", "data": [{"smiles": "NC(=O)OCC1(c2ccccc2)COC(=O)N1", "note": "(stereo not drawn) [cyclic felbamate]", "values": [{"measurement": "ScMET: number of animals protected/total number of animals tested", "setting": "[1]; 30 mg/kg, 0.5 h", "result": "0/1"}, {"measurement": "ScMET: number of animals protected/total number of animals tested", "setting": "[1]; 30 mg/kg, 4.0 h", "result": "0/1"}, {"measurement": "ScMET: number of animals protected/total number of animals tested", "setting": "[1]; 100 mg/kg, 0.5 h", "result": "0/1"}, {"measurement": "ScMET: number of animals protected/total number of animals tested", "setting": "[1]; 100 mg/kg, 4.0 h", "result": "0/1"}, {"measurement": "ScMET: number of animals protected/total number of animals tested", "setting": "[1]; 300 mg/kg, 0.5 h", "result": "0/1"}, {"measurement": "ScMET: number of animals protected/total number of animals tested", "setting": "[1]; 300 mg/kg, 4.0 h", "result": "0/1"}, {"measurement": "TOX: number of animals exhibiting toxic effects/total number of animals tested", "setting": "[2]; 0.25 h", "result": "0/4"}, {"measurement": "TOX: number of animals exhibiting toxic effects/total number of animals tested", "setting": "[2]; 0.5 h", "result": "0/4"}, {"measurement": "TOX: number of animals exhibiting toxic effects/total number of animals tested", "setting": "[2]; 1.0 h", "result": "0/4"}, {"measurement": "TOX: number of animals exhibiting toxic effects/total number of animals tested", "setting": "[2]; 2.0 h", "result": "0/4"}, {"measurement": "TOX: number of animals exhibiting toxic effects/total number of animals tested", "setting": "[2]; 4.0 h", "result": "0/4"}, {"measurement": "MES: number of animals protected/total number of animals tested", "setting": "[3]; 30 mg/kg, 0.5 h", "result": "0/1"}, {"measurement": "MES: number of animals protected/total number of animals tested", "setting": "[3]; 30 mg/kg, 4.0 h", "result": "0/1"}, {"measurement": "MES: number of animals protected/total number of animals tested", "setting": "[3]; 100 mg/kg, 0.5 h", "result": "0/3"}, {"measurement": "MES: number of animals protected/total number of animals tested", "setting": "[3]; 100 mg/kg, 4.0 h", "result": "0/3"}, {"measurement": "MES: number of animals protected/total number of animals tested", "setting": "[3]; 300 mg/kg, 0.5 h", "result": "0/1"}, {"measurement": "MES: number of animals protected/total number of animals tested", "setting": "[3]; 300 mg/kg, 4.0 h", "result": "0/1"}, {"measurement": "anti-seizure activity in rats", "setting": "[4]", "result": "potent activity"}, {"measurement": "MES: number of animals protected/total number of animals tested", "setting": "[4]; 0.25 h", "result": "2/4"}, {"measurement": "MES: number of animals protected/total number of animals tested", "setting": "[4]; 0.5 h", "result": "2/4"}, {"measurement": "MES: number of animals protected/total number of animals tested", "setting": "[4]; 1.0 h", "result": "3/4"}, {"measurement": "MES: number of animals protected/total number of animals tested", "setting": "[4]; 2.0 h", "result": "0/4"}, {"measurement": "MES: number of animals protected/total number of animals tested", "setting": "[4]; 4.0 h", "result": "3/4"}, {"measurement": "TOX: number of animals exhibiting toxic effects/total number of animals tested", "setting": "mice (rotorod); 30 mg/kg, 0.5 h", "result": "0/4"}, {"measurement": "TOX: number of animals exhibiting toxic effects/total number of animals tested", "setting": "mice (rotorod); 30 mg/kg, 4.0 h", "result": "0/2"}, {"measurement": "TOX: number of animals exhibiting toxic effects/total number of animals tested", "setting": "mice (rotorod); 100 mg/kg, 0.5 h", "result": "0/8"}, {"measurement": "TOX: number of animals exhibiting toxic effects/total number of animals tested", "setting": "mice (rotorod); 100 mg/kg, 4.0 h", "result": "0/4"}, {"measurement": "TOX: number of animals exhibiting toxic effects/total number of animals tested", "setting": "mice (rotorod); 300 mg/kg, 0.5 h", "result": "0/4"}, {"measurement": "TOX: number of animals exhibiting toxic effects/total number of animals tested", "setting": "mice (rotorod); 300 mg/kg, 4.0 h", "result": "0/2"}]}, {"smiles": "O=C1NC(=O)C(F)(c2ccccc2)CO1", "note": "(stereo not drawn) [fluoro dioxo, 5-Fluoro-5-phenyl-1,3-oxazinane-2,4-dione]", "values": [{"measurement": "anti-seizure activity in mice", "setting": "[3]; mice", "result": "inactive"}, {"measurement": "anti-seizure activity in rats", "setting": "[4]", "result": "strong anti-seizure activity"}]}, {"smiles": "NC(=O)OCC(F)(COC(N)=O)c1ccccc1", "note": "[fluoro felbamate, 2-Fluoro-2-phenyl-1,3-propanediol dicarbamate]", "values": [{"measurement": "Number Protected/Number Tested", "setting": "[5]; 25 mg/kg", "result": "0/7"}, {"measurement": "Number Protected/Number Tested", "setting": "[5]; 50 mg/kg", "result": "3/7"}, {"measurement": "Number Protected/Number Tested", "setting": "[5]; 100 mg/kg", "result": "7/8^a"}, {"measurement": "afterdischarge duration", "setting": "[5]; kindled rats, 100 mg/kg", "result": "corresponding decrease in afterdischarge duration"}, {"measurement": "seizure score", "setting": "[5]; kindled rats, 100 mg/kg", "result": "significant drop in seizure score"}, {"measurement": "no toxicity at doses up to", "setting": "[2]; oral administration to rats", "result": "up to 500 mg/kg"}, {"measurement": "TOX ED50", "setting": "[2]; rat, p.o.", "result": ">500", "unit": "mg/kg"}, {"measurement": "MES protection", "setting": "[3]; mice, 30 mg/kg, at both 30 minutes and 4 hours", "result": "MES protective effects"}, {"measurement": "times more active than felbamate", "setting": "[3]; test not specified", "result": "5-10 times"}, {"measurement": "MES protection", "setting": "[4]", "result": "full protection"}, {"measurement": "dosage at which toxicity across time occurs", "setting": "mice (rotorod); mice", "result": "≥ 300", "unit": "mg/kg"}, {"measurement": "toxic effects", "setting": "mice (rotorod); mice, 30 mg/kg, 30 minute timepoint", "result": "some toxic effects"}, {"measurement": "safety ratio", "setting": "mice (rotorod); mice, quantitative results (Table 3)", "result": "at least five"}, {"measurement": "TOX ED50", "setting": "mice (rotorod); mouse, I.P.", "result": 115, "unit": "mg/kg"}]}, {"smiles": "NC(=O)OCC(F)(CO)c1ccccc1", "note": "(stereo not drawn) [fluoro monocarbamate felbamate, 2-Fluoro-2-phenyl-1,3-propanediol monocarbamate]", "values": [{"measurement": "MES protection", "setting": "[3]; mice, 100 mg/kg", "result": "moderate MES protection"}, {"measurement": "MES protection", "setting": "[4]", "result": "protection is seen at several different timepoints"}]}, {"smiles": "O=C1NC(=O)C(c2ccccc2)CO1", "note": "(stereo not drawn) [oxazinane-dione 9]", "values": [{"measurement": "stability at relevant pH", "setting": "[6]", "result": "unstable"}]}]}
